Test results reported in patent US20140221340A1 (KYOWA HAKKO KIRIN CO., LTD., priority 2011, published 2014).

biological target: T1, human CCR10 (Homo sapiens, UniProt P46092); experiment: Calcium assay of human CCR10 (inhibition of CTACK-induced increase in intracellular calcium ion concentration in hCCR10G16 cells); type: cell-based; settings: test compound 100 nmol/L; human recombinant CTACK; hCCR10G16 cells (KJMGER8/Namalwa-derived, Gα16 co-expressed); FLIPR or FDSS; read-out: Inhibitory rate (%) for an increase in calcium ion concentration
T1 construct: expressed in transfected cells; host or cells: KJMGER8 cell (cell line derived from Namalwa cell); expression induced with 10 nmol/L β-estradiol
T1 sequence (P46092 1-362): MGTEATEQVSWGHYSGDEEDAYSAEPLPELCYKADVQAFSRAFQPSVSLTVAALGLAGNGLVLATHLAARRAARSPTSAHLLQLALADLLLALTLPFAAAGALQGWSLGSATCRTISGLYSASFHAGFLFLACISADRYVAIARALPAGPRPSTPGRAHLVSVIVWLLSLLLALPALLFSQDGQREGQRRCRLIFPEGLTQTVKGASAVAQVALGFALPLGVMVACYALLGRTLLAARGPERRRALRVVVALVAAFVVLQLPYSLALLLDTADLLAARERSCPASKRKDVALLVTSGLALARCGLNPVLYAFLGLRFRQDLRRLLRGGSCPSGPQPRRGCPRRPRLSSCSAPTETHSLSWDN
Description: A CCR10-inducible expression plasmid was produced according to a known method (“Analytical Biochemistry”, 2006, vol. 400, page 163). A DNA encoding human CCR10 was obtained by PCR. Using human chromosomal DNA (100 ng; manufactured by Clontech Laboratories, Inc.) as a template, a synthetic DNA having the sequences shown by SEQ ID NOs: 1 and 2 as a human CCR10 cDNA specific primer, and Pyrobest DNA Polymerase (manufactured by TAKARA SHUZO CO. LTD.) as an enzyme, a DNA encoding human CCR10 was obtained by PCR. As a buffer solution for PCR, the buffer solution attached to the enzyme was diluted 10-fold with deionized water and used. Using Thermal Cycler DNA Engine (manufactured by MJ Research), PCR was performed by 35 cycles of reactions composed of an incubation at 90° C. for 2 min, at 94° C. for 30 seconds, at an anneal temperature of 58° C. for 30 seconds, and at 72° C. for 1 min.
The amplified PCR fragment was cleaved with HindIII and NotI, then a human CCR10 DNA fragment was recovered by an agarose gel electrophoresis method. The fragment was incorporated in between the corresponding restriction enzyme sites (HindIII-NotI) of an inducible expression vector, whereby a human CCR10-inducible expression plasmid were prepared.
Using a primer specific to the sequence of the plasmid (synthetic DNA having the sequences shown by SEQ ID NOs: 3 and 4), the sequence of human CCR10 DNA region was determined. For the determination of the base sequence, DNA sequencer 377 (manufactured by PerkinElmer) and a reaction kit (ABI Prism (registered trade mark) BigDye (registered trade mark) Terminator Cycle Sequencing Ready Reaction kit: manufactured by Applied Biosystems) were used. The sequence of human CCR10 DNA matched with the sequence (NM_016602) registered in GenBank.
Cells for the detection of the signal from human CCR10 by a calcium assay were prepared. Human CCR10-inducible expressing cells whose host cell is KJMGER8 cell (cell line derived from Namalwa cell) were prepared according to a known method (“Analy Biochem”, 2006, vol. 400, page 163). Human CCR10-inducible expression plasmid produced above and Gα16 expression plasmid were co-transfected into KJMGER8 cell by an electroporation method (“Cytotechnology”, 1990, vol. 3, page 133), whereby a signal from human CCR10 could be detected by a calcium assay (hereinafter to be referred to as hCCR10G16 cell). Gα16 expression plasmid was produced by incorporating human Gα16 DNA into expression vector pAMoh (WO03/087366). Induced expression of human CCR10 was performed by cultivating hCCR10G16 cells in the presence of 10 nmol/L β-estradiol (manufactured by Sigma Ltd.) for 24 hr.
Cells expressing human CCR10 induced by the above-mentioned method were suspended in RPMI1640 medium and adjusted to cell density of 1.25×10^6 cells/mL. This mixture was dispensed to a 384 well clear bottom plate (manufactured by Corning Incorporated) at 20 μL/well, and these were incubated at 37° C. for several dozen minutes. A loading buffer prepared according to the protocol attached to FLIPR Calcium 3 assay kit (manufactured by Molecular Device) was dispensed to this plate at 20 μL/well, and the plate was incubated at 37° C. for 60 min. A 33 μmol/L DMSO solution of the test compound was diluted 37-fold with RPMI1640 medium and the resulting solution was added at 5 μL/well, and the mixture was incubated at 37° C. for 30 min. 300 nmol/L human recombinant CTACK (manufactured by R and D Systems) diluted with RPMI1640 medium containing 1 w/v % bovine serum albumin was added at 5 μL/well. Change of the intracellular calcium ion concentration for about 5 min after the addition was measured by FLIPR (manufactured by Molecular Device) or FDSS (manufactured by Hamamatsu Photonics K.K.). The difference between the maximum fluorescence intensity and the minimum fluorescence intensity for 5 min was calculated, and taken as the measurement value (maximum fluorescence intensity−minimum fluorescence intensity). […]

SMILES	inhibition at 0.1 µM
CCNC(=O)NS(=O)(=O)c1cnn2c(Nc3ccc(Cl)cc3C)c(C(=O)N3CCC4(CC3)OCc3ccccc34)cnc12 [a-47, 7-(4-Chloro-2-methylphenylamino)-N-(ethylcarbamoyl)-6-[3H-spiro(isobenzofuran-1,4′-piperidine)-1′-carbonyl]pyrazolo[1,5-a]pyrimidine-3-sulfonamide]	> 100%
CCN(CC)S(=O)(=O)c1cnn2c(Nc3ccc(F)cc3C)c(C(=O)N3CCC(c4ccccc4)CC3)cnc12 [a-62, N,N-Diethyl-7-(4-fluoro-2-methylphenylamino)-6-(4-phenylpiperidine-1-carbonyl)pyrazolo[1,5-a]pyrimidine-3-sulfonamide]	> 100%
CCNS(=O)(=O)c1cnn2c(Nc3ccc(F)cc3C)c(C(=O)N3CCC(c4ccccc4)CC3)cnc12 [a-2, N-Ethyl-7-(4-fluoro-2-methylphenylamino)-6-(4-phenylpiperidine-1-carbonyl)pyrazolo[1,5-a]pyrimidine-3-sulfonamide]	> 100%
CC(=O)NS(=O)(=O)c1cnn2c(Nc3ccc(F)cc3C)c(C(=O)N3CCC(c4ccccc4)CC3)cnc12 [a-17, N-[7-(4-Fluoro-2-methylphenylamino)-6-(4-phenylpiperidine-1-carbonyl)pyrazolo[1,5-a]pyrimidin-3-ylsulfonyl]acetamide]	> 100%
CCC(=O)NS(=O)(=O)c1cnn2c(Nc3ccc(C)cc3F)c(C(=O)N3CCC4(CC3)OCc3ccccc34)cnc12 [a-48, N-{7-(2-Fluoro-4-methylphenylamino)-6-[3H-spiro(isobenzofuran-1,4′-piperidine)-1′-carbonyl]pyrazolo[1,5-a]pyrimidin-3-ylsulfonyl}propionamide]	> 100%
O=C(c1cnc2c(S(=O)(=O)Nc3nncs3)cnn2c1Nc1cc(Cl)ccc1Cl)N1CCC(c2ccc(F)cc2)CC1 [a-78, 7-(2,5-Dichlorophenylamino)-6-[4-(4-fluorophenyl)piperidine-1-carbonyl]-N-(1,3,4-thiadiazol-2-yl)pyrazolo[1,5-a]pyrimidine-3-sulfonamide]	> 100%
CCNS(=O)(=O)c1cnn2c(Nc3cc(C)ccc3Cl)c(C(=O)N3CCC4(CC3)OCc3ccccc34)cnc12 [a-45, N-Ethyl-7-(2-chloro-5-methylphenylamino)-6-[3H-spiro(isobenzofuran-1,4′-piperidine)-1′-carbonyl]pyrazolo[1,5-a]pyrimidine-3-sulfonamide]	80.3%
COC(=O)NS(=O)(=O)c1cnn2c(Nc3ccc(F)cc3C)c(C(=O)N3CCC(c4ccccc4)CC3)cnc12 [a-72, Methyl 7-(4-fluoro-2-methylphenylamino)-6-(4-phenylpiperidine-1-carbonyl)pyrazolo[1,5-a]pyrimidin-3-ylsulfonylcarbamate]	90.7%
CCC(=O)NS(=O)(=O)c1cnn2c(Nc3ccc(C)cc3Cl)c(C(=O)N3CCC(c4ccc(F)cc4)CC3)cnc12 [a-18, N-{7-(2-Chloro-4-methylphenylamino)-6-[4-(4-fluorophenyl)piperidine-1-carbonyl]pyrazolo[1,5-a]pyrimidin-3-ylsulfonyl}propionamide]	98.3%
CCC(=O)NS(=O)(=O)c1cnn2c(Nc3cc(F)ccc3F)c(C(=O)N3CCC(c4ccc(F)cc4)CC3)cnc12 [a-36, N-{7-(2,5-Difluorophenylamino)-6-[4-(4-fluorophenyl)piperidine-1-carbonyl]pyrazolo[1,5-a]pyrimidin-3-ylsulfonyl}propionamide]	> 100%
CCNC(=O)NS(=O)(=O)c1cnn2c(Nc3ccc(Cl)cc3Cl)c(C(=O)N3CCC(c4ccc(F)cc4)CC3)cnc12 [a-20, 7-(2,4-Dichlorophenylamino)-N-(ethylcarbamoyl)-6-[4-(4-fluorophenyl)piperidine-1-carbonyl]pyrazolo[1,5-a]pyrimidine-3-sulfonamide]	90.7%
O=C(NS(=O)(=O)c1cnn2c(Nc3ccccc3Cl)c(C(=O)N3CCC(c4ccc(F)cc4)CC3)cnc12)C1CC1 [a-9, N-{7-(2-Chlorophenylamino)-6-[4-(4-fluorophenyl)piperidine-1-carbonyl]pyrazolo[1,5-a]pyrimidin-3-ylsulfonyl}cyclopropanecarboxamide]	80.6%
O=C(NS(=O)(=O)c1cnn2c(Nc3cc(Cl)ccc3Cl)c(C(=O)N3CCC4(CC3)OCc3ccccc34)cnc12)C1CC1 [a-54, N-{7-(2,5-Dichlorophenylamino)-6-[3H-spiro(isobenzofuran-1,4′-piperidine)-1′-carbonyl]pyrazolo[1,5-a]pyrimidin-3-ylsulfonyl}cyclopropanecarboxamide]	> 100%
COC(=O)NS(=O)(=O)c1cnn2c(Nc3cc(C)ccc3C)c(C(=O)N3CCC(c4ccccc4)CC3)cnc12 [a-74, Methyl 7-(2,5-dimethylphenylamino)-6-(4-phenylpiperidine-1-carbonyl)pyrazolo[1,5-a]pyrimidin-3-ylsulfonylcarbamate]	> 100%
CCONS(=O)(=O)c1cnn2c(Nc3cc(Cl)ccc3Cl)c(C(=O)N3CCC(c4ccc(F)cc4)CC3)cnc12 [a-28, 7-(2,5-Dichlorophenylamino)-N-ethoxy-6-[4-(4-fluorophenyl)piperidine-1-carbonyl]-pyrazolo[1,5-a]pyrimidine-3-sulfonamide]	> 100%
CC1(C(=O)NS(=O)(=O)c2cnn3c(Nc4cc(Cl)ccc4Cl)c(C(=O)N4CCC(c5ccc(F)cc5)CC4)cnc23)COC1 [a-25, N-{7-(2,5-Dichlorophenylamino)-6-[4-(4-fluorophenyl)piperidine-1-carbonyl]pyrazolo[1,5-a]pyrimidin-3-ylsulfonyl}-3-methyloxetane-3-carboxamide]	> 100%
Cc1cc(F)ccc1Nc1c(C(=O)N2CCC(c3ccccc3)CC2)cnc2c(S(=O)(=O)NC(=O)Nc3ccccc3)cnn12 [a-67, 7-(4-Fluoro-2-methylphenylamino)-N-phenylcarbamoyl-6-(4-phenylpiperidine-1-carbonyl)pyrazolo[1,5-a]pyrimidine-3-sulfonamide]	63.7%
CC(=O)NS(=O)(=O)c1cnn2c(Nc3cc(F)ccc3F)c(C(=O)N3CCC(c4ccc(F)cc4)CC3)cnc12 [a-35, N-{7-(2,5-Difluorophenylamino)-6-[4-(4-fluorophenyl)piperidine-1-carbonyl]pyrazolo[1,5-a]pyrimidin-3-ylsulfonyl}acetamide]	> 100%
Cc1ccc(F)c(Nc2c(C(=O)N3CCC(c4ccc(F)cc4)CC3)cnc3c(S(=O)(=O)NC(=O)NC4CC4)cnn23)c1 [a-32, 7-(2-Fluoro-5-methylphenylamino)-N-(cyclopropylcarbamoyl)-6-[4-(4-fluorophenyl)piperidine-1-carbonyl]pyrazolo[1,5-a]pyrimidine-3-sulfonamide]	> 100%
